Assay results as given in patent publication US11225503B2, “Crystobactamides” (HELMHOLTZ-ZENTRUM FÜR INFEKTIONSFORSCHUNG GMBH, priority 2013, dated 2022).
In brackets after ≈: the same amount, converted by molar mass.

Columns and labels:
in vitro = type: cell-based, Chinese hamster; settings: Chinese hamster
Experimental: Human HCT-116 colon carcinoma cells (CCL-247) were obtained from the American Type Culture Collection (ATCC) and Chinese hamster ovary CHO-K1 cells (ACC-110) were obtained from the German Collection of Microorganisms and Cell Cultures (DSMZ). Both cell lines were cultured under the conditions recommended by the respective depositor. Primary HUVEC (human umbilical vein endothelial cells; single donor) were purchased from PromoCell (Heidelberg, Germany) and cultured in Endothelial Cell Growth Medium (PromoCell) containing the following supplements: 2% FCS, 0.4% ECGS, 0.1 ng/ml EGF, 1 ng/ml bFGF, 90 μg/ml heparin, 1 μg/ml hydrocortisone.
(§1) Cells were seeded at 6×10^3 cells per well of 96-well plates (Corning CellBind®) in complete medium (180 μl) and directly treated with cystobactamides dissolved in methanol in a serial dilution. Compound were tested in duplicate for 5 d, as well as the internal solvent control. After 5 d incubation, 5 mg/ml MTT in PBS (20 μL) was added per well and it was further incubated for 2 h at 37° C.[7] The medium was then discarded and cells were washed with PBS (100 μl) before adding 2-propanol/10N HCl (250:1, v/v; 100 μl) in order to dissolve formazan granules. The absorbance at 570 nm was measured using a microplate reader (EL808, Bio-Tek Instruments Inc.).

[1] = test system: E. coli strain WT-4 M2.1 (parC mutation); experiment: Susceptibility of mutant E. coli strains, MIC; type: cell-based; settings: Escherichia coli
Source text: Cystobactamides were screened using a panel of E. coli strains with typical mutations in gyrA and parC genes (Table 11).
Bacterial wildtype strains used in susceptibility assays were either part of our strain collection or purchased from the German Collection of Microorganisms and Cell Cultures (DSMZ) or from the American Type Culture Collection (ATCC). E. coli strain WT^[6] and E. coli mutants were kindly provided by Prof. Dr. P. Heisig, Pharmaceutical Biology and Microbiology, University of Hamburg.
(§2) MIC values were determined in microdilution assays. Overnight cultures were diluted in the appropriate growth medium to achieve an inoculum of 10^4-10^6 cfu/mL. Yeasts were grown in Myc medium (1% phytone peptone, 1% glucose, 50 mM HEPES, pH 7.0), S. pneumonia and E. faecalis in tryptic soy broth (TSB: 1.7% peptone casein, 0.3% peptone soymeal, 0.25% glucose, 0.5% NaCl, 0.25% K2HPO4; pH 7.3); M. smegmatis in Middlebrook 7H9 medium supplemented with 10% Middlebrook ADC enrichment and 2 ml/l glycerol). All other listed bacteria were grown in Müller-Hinton broth (0.2% beef infusion solids, 1.75% casein hydrolysate, 0.15% starch, pH 7.4). Cystobactamides and reference drugs were added directly to the cultures in sterile 96-well plates as duplicates and serial dilutions were prepared. Microorganisms were grown on a microplate shaker (750 rpm, 30-37° C., 18-48 h), except S. pneumonia, which was grown at non-shaking conditions (37° C., 5% CO2, 18 h). Growth inhibition was assessed by visual inspection and the MIC was defined as the lowest concentration of compound that inhibited visible growth.

[2] = test system: several microorganisms and cell lines; experiment: Biological evaluation, summary statements over the MIC and cytotoxicity tests; type: cell-based
Experimental: as §1, §2

Compound | GI50 at 5 d (in vitro) [µM] | MIC [1] [µg/mL] | inhibition of pathogenic Gram-negative strains A. baumannii and P. aeruginosa (MIC range) ([2]; A. baumannii and P. aeruginosa) | average potency on Gram-positive bacteria compared with ciprofloxacin ([2]; E. faecalis, S. aureus, S. pneumonia, average MIC)
CC(C)Oc1cc(C(=O)O)ccc1NC(=O)c1ccc(NC(=O)c2ccc(N)cc2)c(OC(C)C)c1O [cystobactamide C, Cystobactamide C] | ~111 | 8.1 (≈ 16 µM) |  | 
CO[C@H](C(=O)Nc1ccc(C(=O)Nc2ccc(C(=O)Nc3ccc(C(=O)O)cc3OC(C)C)c(O)c2OC(C)C)cc1)[C@H](NC(=O)c1ccc(NC(=O)c2ccc([N+](=O)[O-])cc2)cc1)C(=O)O [cystobactamide A, Cystobactamide A] |  | 0.5 (≈ 0.543 µM) | low μg/ml range | exceeded that of ciprofloxacin
